Biological target: T1, human TMEM16A (TMEM16Aabc variant) (Homo sapiens, UniProt Q5XXA6, DEL476-501)
T1 sequence (Q5XXA6 with tags, fused parts or gaps isoform Q5XXA6-5 DEL539-564): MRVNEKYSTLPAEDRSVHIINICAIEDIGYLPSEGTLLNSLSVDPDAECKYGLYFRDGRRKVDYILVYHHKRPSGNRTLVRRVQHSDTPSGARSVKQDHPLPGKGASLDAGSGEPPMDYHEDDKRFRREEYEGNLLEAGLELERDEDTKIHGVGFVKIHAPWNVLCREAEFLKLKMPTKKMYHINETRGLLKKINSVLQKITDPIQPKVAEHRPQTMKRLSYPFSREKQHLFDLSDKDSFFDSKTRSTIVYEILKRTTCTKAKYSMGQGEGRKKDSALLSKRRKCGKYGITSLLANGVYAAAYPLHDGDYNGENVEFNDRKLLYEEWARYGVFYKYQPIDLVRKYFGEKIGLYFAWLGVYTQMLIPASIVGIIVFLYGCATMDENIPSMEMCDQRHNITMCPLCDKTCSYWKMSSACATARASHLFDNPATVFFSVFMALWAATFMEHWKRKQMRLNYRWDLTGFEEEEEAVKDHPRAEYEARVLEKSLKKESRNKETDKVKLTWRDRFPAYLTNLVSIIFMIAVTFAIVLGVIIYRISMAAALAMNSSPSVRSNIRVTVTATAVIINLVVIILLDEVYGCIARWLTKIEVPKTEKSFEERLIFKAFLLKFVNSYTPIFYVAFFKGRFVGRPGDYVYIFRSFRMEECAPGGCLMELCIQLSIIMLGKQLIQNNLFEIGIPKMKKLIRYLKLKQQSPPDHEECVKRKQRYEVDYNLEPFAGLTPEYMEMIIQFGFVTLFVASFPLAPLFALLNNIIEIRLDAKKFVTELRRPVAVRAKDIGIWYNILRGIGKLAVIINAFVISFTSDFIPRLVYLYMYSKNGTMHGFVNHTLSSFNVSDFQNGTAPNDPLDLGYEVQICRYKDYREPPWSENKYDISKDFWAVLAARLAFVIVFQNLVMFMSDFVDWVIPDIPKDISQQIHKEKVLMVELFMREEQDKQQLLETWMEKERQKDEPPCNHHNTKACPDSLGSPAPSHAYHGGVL
Assay: Automated whole-cell patch clamp (Qpatch) TMEM16A potentiator assay in recombinant cells
Format: cell-based
Conditions: FRT cells stably expressing human TMEM16A, intracellular calcium at EC20; for % Potentiation @ 3.33 μM Avg: 3.33 μM solution of test compound, percentage increase of baseline TMEM16A current, peak current at +70 mV; for EC50: calculated from cumulative concentration response curve, whole-cell patch clamp
Procedure: Automated Whole-Cell Patch Clamp Assay to Detect TMEM16A Activity in Recombinant Cells
Cell Culture and Preparation
Fisher rat thyroid (FRT) cells stably expressing human TMEM16A (TMEM16Aabc variant; Dr Luis Galietta, Insituto Giannina, Italy) were cultured in T-75 flasks in Hams F-12 media with Coon's modification (Sigma) supplemented with 10% (v/v) foetal bovine serum, penicillin-streptomycin (10,000 U/mL/10000 μg/mL), G-418 (750 μg/mL), L-glutamine (2 mM) and sodium bicarbonate solution (7.5% v/v). At ˜90% confluence cells were harvested for experiments by detachment with a 2:1 (v/v) mixture of Detachin (BMS Biotechnology) and 0.25% (w/v) trypsin-EDTA. Cells were diluted to a density of 3.5-4.5×10^6 cells/mL with media consisting of CHO-S-SFM II (Sigma), 25 mM HEPES (Sigma) and Soy bean trypsin inhibitor (Sigma).
Whole-Cell Patch Clamp Recording
FRT-TMEM16A cells were whole-cell patch clamped using an automated planar patch clamp system (Qpatch, Sophion). Briefly, once high resistance (GOhm) seals were established between the cells and the planar recording array the patch was ruptured using suction pulses to establish the whole-cell recording configuration of the patch clamp technique. The assay employed the following solutions (all reagents Sigma):
Intracellular solution (mM): N-methyl-D-glucamine 130, CaCl2 18.2, MgCl2 1, HEPES 10, EGTA 10, BAPTA 20, Mg-ATP 2, pH 7.25, 325 mOsm with sucrose.
Extracellular solution (mM): N-methyl-D-glucamine 130, CaCl2 2, MgCl2 1, HEPES 10, pH 7.3, 320 mOsm with sucrose.
The intracellular solution buffers intracellular calcium at levels required to give ˜20% activation of the maximal TMEM16A mediated current (EC20 for calcium ions). Cells were voltage clamped at a holding potential of −70 mV and a combined voltage step (to +70 mV)/ramp (−90 my to +90 mV) was applied at 0.05 Hz. After a period of current stabilisation test compounds, solubilised in 100% (v/v) DMSO and subsequently diluted into extracellular solution, were applied to generate a cumulative concentration response curve. Each concentration of test compound was incubated for 5 minutes before addition of the next concentration. After the final concentration was tested a supramaximal concentration of either a known active positive modulator or the TMEM16A inhibitor, CaCCinhA01 (Del La Fuente et al, 2008) was added to define the upper and lower limits of the assay.
Compound activity was quantified by measuring the increase in current upon compound addition and expressing this as a percentage increase of baseline TMEM16A current level. Percentage increases in current were determined for each concentration and the data plotted as a function of concentration using either the Qpatch software or Graphpad Prism v6.05 providing the concentration which gave 50% of its maximal effect (EC50) and maximum efficacy (percentage of baseline increase).
In FIG. 1, IBL equals baseline current, I[#1] equals the peak current during test compound concentration 1 incubation period and so on.
Peak TMEM16A current at +70 mV was plotted as a function of time over the assay period. Baseline current (IBL) was measured after a period of stabilisation. The increase in current for each compound addition was determined by taking the peak current during the incubation period and subtracting the current from the previous recording period and then expressing this as a percentage of the baseline current. For test compound concentration 1 in FIG. 1 this is:
For each additional concentration tested the increase in current was determined by subtracting the current from the previous incubation period and normalising the baseline value—for test concentration 2 in FIG. 1 this is:
The values for each test concentration were plotted as a cumulative function of concentration e.g. for test concentration two this would be the sum of the peak changes measured during concentration one plus concentration two.

Row | % Potentiation @ 3.33 μM Avg | EC50 | Structure (SMILES)
1 | 96.6% | 198 nM | O=C(NCC1CCCCCC1)c1ccc2cn(Cc3ccccc3O)nc2c1 [Example 13, N-(Cycloheptylmethyl)-2-[(2-hydroxyphenyl)methyl]indazole-6-carboxamide]
2 | 69% | 98 nM | CC(C)(C)Cc1nc2cc(NC(=O)Cc3cc(Cl)ccc3O)ccc2[nH]1 [Example 26, 2-(5-Chloro-2-hydroxy-phenyl)-N-[2-(2,2-dimethylpropyl)-1H-benzimidazol-5-yl]acetamide]
3 | 187.3% | 732 nM | O=C(CC12CC3CC(CC(C3)C1)C2)Nc1ccc2[nH]c(Cc3cccnc3Cl)nc2c1 [Example 4, 2-(1-Adamantyl)-N-[2-[(2-chloro-3-pyridyl)methyl]-1H-benzimidazol-5-yl]acetamide]
4 | 156.9% | 79 nM | O=C(CC1C2CC3CC(C2)CC1C3)Nc1ccc2[nH]c(Cc3ccccc3O)nc2c1 (centres unmarked) [Example 5, 2-(2-Adamantyl)-N-[2-[(2-hydroxyphenyl)methyl]-1H-benzimidazol-5-yl]acetamide]
5 | 122.7% | 98 nM | Nc1c2ccc(NC(=O)CC34CC5CC(CC(C5)C3)C4)cc2nn1Cc1ccccc1O [Example 11, 2-(1-Adamantyl)-N-[3-amino-2-[(2-hydroxyphenyl)methyl]indazol-6-yl]acetamide]
6 | 95.9% | 156 nM | CC(C)(C)c1nc2cc(NC(=O)Cc3cc(Cl)ccc3O)ccc2[nH]1 [Example 18, N-(2-tert-Butyl-1H-benzimidazol-5-yl)-2-(5-chloro-2-hydroxy-phenyl)acetamide]
7 | 104% | 76 nM | O=C(NCC1CCCCCC1)c1ccc2[nH]c(Cc3ccccc3O)nc2c1 [Example 25.3, N-(Cycloheptylmethyl)-2-[(2-hydroxyphenyl)methyl]-1H-benzimidazole-5-carboxamide]

The next lines start with the compound.

Row | Structure (SMILES) | % Potentiation @ 3.33 μM Avg | EC50
8 | CC(C)(CO)c1cc(F)c(CNC(=O)c2ccc3[nH]c(C4(C(F)(F)F)CC4)nc3c2)cc1O [Example 30, N-[[2-Fluoro-5-hydroxy-4-(2-hydroxy-1,1-dimethyl-ethyl)phenyl]methyl]-2-[1-(trifluoromethyl)cyclopropyl]-1H-benzimidazole-5-carboxamide] | 66% | –
9 | O=C(NCC1CCCCCC1)c1ccc2[nH]c(Cc3c(O)cccc3F)nc2c1 [Example 25, N-(Cycloheptylmethyl)-2-[(2-fluoro-6-hydroxy-phenyl)methyl]-1H-benzimidazole-5-carboxamide] | 57% | 36 nM
10 | CC(C)(O)c1cc(F)c(Cc2nc3cc(C(=O)NCCC(F)(F)F)ccc3[nH]2)cc1O [Example 31, 2-[[2-Fluoro-5-hydroxy-4-(1-hydroxy-1-methyl-ethyl)phenyl]methyl]-N-(3,3,3-trifluoropropyl)-1H-benzimidazole-5-carboxamide] | 158% | –
11 | CC(C)(C)c1cc(F)c(Cc2nc3cc(C(=O)NCC4(C(F)(F)F)CC4)ccc3[nH]2)cc1O [Example 21.1, 2-[(4-tert-Butyl-2-fluoro-5-hydroxy-phenyl)methyl]-N-[[1-(trifluoromethyl)cyclopropyl]methyl]-1H-benzimidazole-5-carboxamide] | 275% | 227 nM
12 | CC(C)c1nc2cc(NC(=O)CC3CCCCC3)ccc2o1 [Example 12, 2-Cyclohexyl-N-(2-isopropyl-1,3-benzoxazol-5-yl)acetamide] | 44.6% | 3340 nM
13 | CC(C)(O)c1cc(F)c(Cc2nc3cc(C(=O)NC4(C(F)(F)F)CC4)ccc3[nH]2)cc1O [Example 31.1, 2-[[2-Fluoro-5-hydroxy-4-(1-hydroxy-1-methyl-ethyl)phenyl]methyl]-N-[1-(trifluoromethyl)cyclopropyl]-1H-benzimidazole-5-carboxamide] | 108% | –

Source: patent publication US12552770B2, “Compounds for treating respiratory disease” (TMEM16A Limited, priority 2020, dated 2026)
